Experimental data from publication PMC9019041, “Structural insights into the peptide selectivity and activation of human neuromedin U receptors” (Nature Communications, 2022).
Read-outs that look alike come from different tables or passages of the source. Where no end group is shown, it is not given here.

How the values were obtained:
Format in all cases: cell-based
NMUR1 WT = target: T1, NMUR1 WT (Homo sapiens, UniProt Q9HB89); assay: IP-One assay, NMUR1 WT
T1 construct: The full-length human NMUR1 and NMUR2 were modified; expressed in transfected cells; host or cells: AD293 cells
Method: (§1) IP-One production was measured using the IP-One HTRF kit (Cisbio)[62]. Briefly, AD293 cells (Agilent) were grown to a density of 400,000–500,000 cells per mL and then infected with separate plasmids at a suitable concentration. The culture was collected by centrifugation 24 h after incubation at 37 °C in 5% CO2 with a Stimulation Buffer. The cell suspension was then dispensed in a white 384-well plate at a volume of 7 μl per well before adding 7 μl of ligands. The mixture was incubated for 1 h at 37 °C. IP-One-d2 and anti-IP-One Cryptate dissolved in Lysis Buffer (3 μl each) were subsequently added and incubated for 15-30 min at room temperature before measurement. Intracellular IP-One measurement was carried with the IP-One HTRF kit and EnVision multi-plate reader (PerkinElmer) according to the manufacturer’s instructions. Data were normalized to the baseline response of the ligand.
(§2) The significance was determined with two-side, one-way ANOVA with Tukey’s test, and ^*P < 0.05 was considered statistically significant.

NMUR1 L59A = target: T2, NMUR1 L59A (Homo sapiens, UniProt Q9HB89, L59A); assay: IP-One assay, NMUR1 L59A; conditions: mean ± S.E.M., three independent experiments (n=3), SEM, read-out: IP1 accumulation pEC50 ± S.E.M. (converted)
T2 construct: The full-length human NMUR1 and NMUR2 were modified; expressed in transfected cells; host or cells: AD293 cells
Method: as §1, §2

NMUR1 E117A = target: T3, NMUR1 E117A (Homo sapiens, UniProt Q9HB89, E117A); assay: IP-One assay, NMUR1 E117A; conditions: mean ± S.E.M., three independent experiments (n=3), SEM, read-out: IP1 accumulation pEC50 ± S.E.M. (converted)
T3 construct: The full-length human NMUR1 and NMUR2 were modified; expressed in transfected cells; host or cells: AD293 cells
Method: as §1, §2

NMUR1 E120A = target: T4, NMUR1 E120A (Homo sapiens, UniProt Q9HB89, E120A); assay: IP-One assay, NMUR1 E120A; conditions: mean ± S.E.M., three independent experiments (n=3), SEM, read-out: IP1 accumulation pEC50 ± S.E.M. (converted)
T4 construct: The full-length human NMUR1 and NMUR2 were modified; expressed in transfected cells; host or cells: AD293 cells
Method: as §1, §2

NMUR1 M121A = target: T5, NMUR1 M121A (Homo sapiens, UniProt Q9HB89, M121A); assay: IP-One assay, NMUR1 M121A; conditions: mean ± S.E.M., three independent experiments (n=3), SEM, read-out: IP1 accumulation pEC50 ± S.E.M. (converted)
T5 construct: The full-length human NMUR1 and NMUR2 were modified; expressed in transfected cells; host or cells: AD293 cells
Method: as §1, §2

NMUR1 N124A = target: T6, NMUR1 N124A (Homo sapiens, UniProt Q9HB89, N124A); assay: IP-One assay, NMUR1 N124A; conditions: mean ± S.E.M., three independent experiments (n=3), SEM, read-out: IP1 accumulation pEC50 ± S.E.M. (converted)
T6 construct: The full-length human NMUR1 and NMUR2 were modified; expressed in transfected cells; host or cells: AD293 cells
Method: as §1, §2

NMUR1 Y125A = target: T7, NMUR1 Y125A (Homo sapiens, UniProt Q9HB89, Y125A); assay: IP-One assay, NMUR1 Y125A; conditions: mean ± S.E.M., three independent experiments (n=3), SEM, read-out: IP1 accumulation pEC50 ± S.E.M. (converted)
T7 construct: The full-length human NMUR1 and NMUR2 were modified; expressed in transfected cells; host or cells: AD293 cells
Method: as §1, §2

NMUR1 F141A = target: T8, NMUR1 F141A (Homo sapiens, UniProt Q9HB89, F141A); assay: IP-One assay, NMUR1 F141A; conditions: mean ± S.E.M., three independent experiments (n=3), SEM, read-out: IP1 accumulation pEC50 ± S.E.M. (converted)
T8 construct: The full-length human NMUR1 and NMUR2 were modified; expressed in transfected cells; host or cells: AD293 cells
Method: as §1, §2

NMUR1 E142A = target: T9, NMUR1 E142A (Homo sapiens, UniProt Q9HB89, E142A); assay: IP-One assay, NMUR1 E142A; conditions: mean ± S.E.M., three independent experiments (n=3), SEM, read-out: IP1 accumulation pEC50 ± S.E.M. (converted)
T9 construct: The full-length human NMUR1 and NMUR2 were modified; expressed in transfected cells; host or cells: AD293 cells
Method: as §1, §2

NMUR1 H200A = target: T10, NMUR1 H200A (Homo sapiens, UniProt Q9HB89, H200A); assay: IP-One assay, NMUR1 H200A; conditions: mean ± S.E.M., three independent experiments (n=3), SEM, read-out: IP1 accumulation pEC50 ± S.E.M. (converted)
T10 construct: The full-length human NMUR1 and NMUR2 were modified; expressed in transfected cells; host or cells: AD293 cells
Method: as §1, §2

NMUR1 F313A = target: T11, NMUR1 F313A (Homo sapiens, UniProt Q9HB89, F313A); assay: IP-One assay, NMUR1 F313A; conditions: mean ± S.E.M., three independent experiments (n=3), SEM, read-out: IP1 accumulation pEC50 ± S.E.M. (converted)
T11 construct: The full-length human NMUR1 and NMUR2 were modified; expressed in transfected cells; host or cells: AD293 cells
Method: as §1, §2

NMUR1 D316A = target: T12, NMUR1 D316A (Homo sapiens, UniProt Q9HB89, D316A); assay: IP-One assay, NMUR1 D316A; conditions: mean ± S.E.M., three independent experiments (n=3), SEM, read-out: IP1 accumulation pEC50 ± S.E.M. (converted)
T12 construct: The full-length human NMUR1 and NMUR2 were modified; expressed in transfected cells; host or cells: AD293 cells
Method: as §1, §2

NMUR1 W320A = target: T13, NMUR1 W320A (Homo sapiens, UniProt Q9HB89, W320A); assay: IP-One assay, NMUR1 W320A; conditions: mean ± S.E.M., three independent experiments (n=3), SEM, read-out: IP1 accumulation pEC50 ± S.E.M. (converted)
T13 construct: The full-length human NMUR1 and NMUR2 were modified; expressed in transfected cells; host or cells: AD293 cells
Method: as §1, §2

NMUR1 H331A = target: T14, NMUR1 H331A (Homo sapiens, UniProt Q9HB89, H331A); assay: IP-One assay, NMUR1 H331A; conditions: mean ± S.E.M., three independent experiments (n=3), SEM, read-out: IP1 accumulation pEC50 ± S.E.M. (converted)
T14 construct: The full-length human NMUR1 and NMUR2 were modified; expressed in transfected cells; host or cells: AD293 cells
Method: as §1, §2

NMUR1 F334A = target: T15, NMUR1 F334A (Homo sapiens, UniProt Q9HB89, F334A); assay: IP-One assay, NMUR1 F334A; conditions: mean ± S.E.M., three independent experiments (n=3), SEM, read-out: IP1 accumulation pEC50 ± S.E.M. (converted)
T15 construct: The full-length human NMUR1 and NMUR2 were modified; expressed in transfected cells; host or cells: AD293 cells
Method: as §1, §2

NMUR1 Q335A = target: T16, NMUR1 Q335A (Homo sapiens, UniProt Q9HB89, Q335A); assay: IP-One assay, NMUR1 Q335A; conditions: mean ± S.E.M., three independent experiments (n=3), SEM, read-out: IP1 accumulation pEC50 ± S.E.M. (converted)
T16 construct: The full-length human NMUR1 and NMUR2 were modified; expressed in transfected cells; host or cells: AD293 cells
Method: as §1, §2

NMUR1 H338A = target: T17, NMUR1 H338A (Homo sapiens, UniProt Q9HB89, H338A); assay: IP-One assay, NMUR1 H338A; conditions: mean ± S.E.M., three independent experiments (n=3), SEM, read-out: IP1 accumulation pEC50 ± S.E.M. (converted)
T17 construct: The full-length human NMUR1 and NMUR2 were modified; expressed in transfected cells; host or cells: AD293 cells
Method: as §1, §2

NMUR1 V339A = target: T18, NMUR1 V339A (Homo sapiens, UniProt Q9HB89, V339A); assay: IP-One assay, NMUR1 V339A; conditions: mean ± S.E.M., three independent experiments (n=3), SEM, read-out: IP1 accumulation pEC50 ± S.E.M. (converted)
T18 construct: The full-length human NMUR1 and NMUR2 were modified; expressed in transfected cells; host or cells: AD293 cells
Method: as §1, §2

NMUR1 F345A = target: T19, NMUR1 F345A (Homo sapiens, UniProt Q9HB89, F345A); assay: IP-One assay, NMUR1 F345A; conditions: mean ± S.E.M., three independent experiments (n=3), SEM, read-out: IP1 accumulation pEC50 ± S.E.M. (converted)
T19 construct: The full-length human NMUR1 and NMUR2 were modified; expressed in transfected cells; host or cells: AD293 cells
Method: as §1, §2

NMUR1 Y346A = target: T20, NMUR1 Y346A (Homo sapiens, UniProt Q9HB89, Y346A); assay: IP-One assay, NMUR1 Y346A; conditions: mean ± S.E.M., three independent experiments (n=3), SEM, read-out: IP1 accumulation pEC50 ± S.E.M. (converted)
T20 construct: The full-length human NMUR1 and NMUR2 were modified; expressed in transfected cells; host or cells: AD293 cells
Method: as §1, §2

NMUR2 WT = target: T21, NMUR2 WT (Homo sapiens, UniProt Q9GZQ4); assay: IP-One assay, NMUR2 WT
T21 construct: The full-length human NMUR1 and NMUR2 were modified; expressed in transfected cells; host or cells: AD293 cells
Method: as §1, §2

NMUR2 F44A = target: T22, NMUR2 F44A (Homo sapiens, UniProt Q9GZQ4, F44A); assay: IP-One assay, NMUR2 F44A; conditions: mean ± S.E.M., three independent experiments (n=3), SEM, read-out: IP1 accumulation pEC50 ± S.E.M. (converted)
T22 construct: The full-length human NMUR1 and NMUR2 were modified; expressed in transfected cells; host or cells: AD293 cells
Method: as §1, §2

NMUR2 Y52A = target: T23, NMUR2 Y52A (Homo sapiens, UniProt Q9GZQ4, Y52A); assay: IP-One assay, NMUR2 Y52A; conditions: mean ± S.E.M., three independent experiments (n=3), SEM, read-out: IP1 accumulation pEC50 ± S.E.M. (converted)
T23 construct: expressed in transfected cells; host or cells: AD293 cells
Method: as §1, §2

T1 sequence (Q9HB89 whole entry): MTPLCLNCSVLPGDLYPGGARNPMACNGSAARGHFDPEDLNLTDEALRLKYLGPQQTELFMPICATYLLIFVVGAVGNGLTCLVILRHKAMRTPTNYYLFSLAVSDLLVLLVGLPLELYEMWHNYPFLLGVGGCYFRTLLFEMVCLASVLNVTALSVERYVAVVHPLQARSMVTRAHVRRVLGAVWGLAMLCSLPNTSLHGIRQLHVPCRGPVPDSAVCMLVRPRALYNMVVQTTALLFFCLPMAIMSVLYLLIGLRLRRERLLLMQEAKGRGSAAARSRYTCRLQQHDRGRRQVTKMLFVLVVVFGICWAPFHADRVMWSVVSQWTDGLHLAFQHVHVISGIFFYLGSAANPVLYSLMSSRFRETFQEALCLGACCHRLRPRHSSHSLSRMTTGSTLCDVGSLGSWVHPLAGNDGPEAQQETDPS
T21 sequence (Q9GZQ4 whole entry): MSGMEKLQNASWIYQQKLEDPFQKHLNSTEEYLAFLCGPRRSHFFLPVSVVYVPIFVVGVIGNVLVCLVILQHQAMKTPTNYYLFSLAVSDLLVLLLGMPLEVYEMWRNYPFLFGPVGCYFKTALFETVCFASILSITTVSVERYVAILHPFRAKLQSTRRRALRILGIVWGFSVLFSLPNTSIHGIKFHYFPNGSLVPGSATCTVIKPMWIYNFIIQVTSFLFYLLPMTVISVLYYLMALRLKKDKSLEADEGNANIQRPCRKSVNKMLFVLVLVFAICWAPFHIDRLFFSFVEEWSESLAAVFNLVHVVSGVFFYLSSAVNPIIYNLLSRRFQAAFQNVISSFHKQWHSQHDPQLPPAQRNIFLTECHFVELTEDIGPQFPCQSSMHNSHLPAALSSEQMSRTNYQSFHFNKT
T12 sequence (Q9HB89 whole entry D316A): as the sequence (Q9HB89 whole entry) above, with D316A counted along it
T16 sequence (Q9HB89 whole entry Q335A): as the sequence (Q9HB89 whole entry) above, with Q335A counted along it
T20 sequence (Q9HB89 whole entry Y346A): as the sequence (Q9HB89 whole entry) above, with Y346A counted along it
T23 sequence (Q9GZQ4 whole entry Y52A): as the sequence (Q9GZQ4 whole entry) above, with Y52A counted along it
T14 sequence (Q9HB89 whole entry H331A): as the sequence (Q9HB89 whole entry) above, with H331A counted along it
T8 sequence (Q9HB89 whole entry F141A): as the sequence (Q9HB89 whole entry) above, with F141A counted along it
T19 sequence (Q9HB89 whole entry F345A): as the sequence (Q9HB89 whole entry) above, with F345A counted along it
T6 sequence (Q9HB89 whole entry N124A): as the sequence (Q9HB89 whole entry) above, with N124A counted along it
T9 sequence (Q9HB89 whole entry E142A): as the sequence (Q9HB89 whole entry) above, with E142A counted along it
T15 sequence (Q9HB89 whole entry F334A): as the sequence (Q9HB89 whole entry) above, with F334A counted along it
T10 sequence (Q9HB89 whole entry H200A): as the sequence (Q9HB89 whole entry) above, with H200A counted along it
T5 sequence (Q9HB89 whole entry M121A): as the sequence (Q9HB89 whole entry) above, with M121A counted along it
T2 sequence (Q9HB89 whole entry L59A): as the sequence (Q9HB89 whole entry) above, with L59A counted along it
T17 sequence (Q9HB89 whole entry H338A): as the sequence (Q9HB89 whole entry) above, with H338A counted along it
T22 sequence (Q9GZQ4 whole entry F44A): as the sequence (Q9GZQ4 whole entry) above, with F44A counted along it
T3 sequence (Q9HB89 whole entry E117A): as the sequence (Q9HB89 whole entry) above, with E117A counted along it
T7 sequence (Q9HB89 whole entry Y125A): as the sequence (Q9HB89 whole entry) above, with Y125A counted along it
T13 sequence (Q9HB89 whole entry W320A): as the sequence (Q9HB89 whole entry) above, with W320A counted along it
T4 sequence (Q9HB89 whole entry E120A): as the sequence (Q9HB89 whole entry) above, with E120A counted along it
T11 sequence (Q9HB89 whole entry F313A): as the sequence (Q9HB89 whole entry) above, with F313A counted along it
T18 sequence (Q9HB89 whole entry V339A): as the sequence (Q9HB89 whole entry) above, with V339A counted along it

EC50 (NMUR1 WT; NMUR1 WT, mean ± S.E.M., three independent experiments (n=3), SEM, read-out: IP1 accumulation pEC50 ± S.E.M. (converted)): 3.55 nM
EC50 (NMUR1 WT; wild-type (WT) NMUR1, Supplementary Fig. 1, three independent experiments, read-out: pEC50 of NMU (converted)): 4.47 nM
EC50 (NMUR1 L59A): 110 nM
EC50 (NMUR1 E117A): 1070 nM
EC50 (NMUR1 E120A): 10.7 nM
EC50 (NMUR1 M121A): 51.3 nM
EC50 (NMUR1 N124A): 6.92 nM
EC50 (NMUR1 Y125A): 20 nM
EC50 (NMUR1 F141A): 115 nM
EC50 (NMUR1 E142A): 47.9 nM
EC50 (NMUR1 H200A): 41.7 nM
EC50 (NMUR1 F313A): 209 nM
EC50 (NMUR1 D316A): 10.5 nM
EC50 (NMUR1 W320A): 2880 nM
EC50 (NMUR1 H331A): 11.5 nM
EC50 (NMUR1 F334A): 85.1 nM
EC50 (NMUR1 Q335A): 18.2 nM
EC50 (NMUR1 H338A): 29.5 nM
EC50 (NMUR1 V339A): 11.5 nM
EC50 (NMUR1 F345A): 1480 nM
EC50 (NMUR1 Y346A): 155 nM
EC50 (NMUR2 WT; NMUR2 WT, mean ± S.E.M., three independent experiments (n=3), SEM, read-out: IP1 accumulation pEC50 ± S.E.M. (converted)): 0.631 nM
EC50 (NMUR2 WT; WT NMUR2, Supplementary Fig. 1, three independent experiments, read-out: pEC50 of NMU (converted)): 3.02 nM
EC50 (NMUR2 F44A): 102 nM
EC50 (NMUR2 Y52A): 1 nM
Substance: FRVDEEFQSPFASQSRGYFLFRPRN-NH2 [NMU, neuromedin U]
